Results published in patent US20080188680A1, “Process Improvement Using Solubility Characteristics” (priority 2005, published 2008).

Tests used:
[1] = Gravimetric solubility of diester in methanol (saturated solution); assay type: physicochemical
Experimental: The solubility of dimethyl-5-nitrophthalate (“diester”) in methanol was determined through the normal boiling of methanol, and presented in the following table:
Using glass pressure test tubes immersed in boiling water, an additional point for the solubility of diester at 100° C. was measured to be about 58 wt % diester.
Generally, the solubility was determined gravimetrically. A dilute slurry of diester and methanol was heated to a desired temperature. As needed, more diester solids were added to maintain a dilute slurry. The slurry was heated to a known temperature and stirred for approximately 15-30 minutes to assure the diester solids were equilibrated and the solution was saturated. Then, the stirring was stopped and the diester solids were allowed to settle. A sample of the supernatant liquid was obtained, the liquid was evaporated and the weight of the residual diester was measured. The weight of the residual diester solid was used to calculate the solubility of the diester solid in the methanol. This procedure was repeated for several different temperatures. Then, from the highest temperature, the procedure was repeated except the slurry was cooled to each sampling point and methanol was added instead of diester solids as necessary to maintain a dilute slurry. The difference in the solubility data sets between the heating data set and the cooling data set is an indication of how well equilibrium was obtained.

[2] = Activity coefficient of diester in saturated methanol solution, transformed from the solubility data; assay type: physicochemical; parameters: key: γ = ideal mole-fraction solubility / actual mole-fraction solubility
Excerpt: Solubility data can be compared to the ideal solubility. Two component solubility data (solute and solvent) at various temperatures can be easily calculated as a mole fraction of the solute in solution. The ratio of the mole fraction ideal solubility, xsolute ideal (calculated at the same temperature as the solubility data point) to each mole fraction solubility data point, xsolute actual is the activity coefficient, γsolute. These relationships are expressed mathematically, per equation (2)
In order to solve equation (3) for the activity coefficient, three experimental values are necessary: (i) the melting point of the solute, (ii) the heat of fusion of the solute in cal/g·mol and (iii) at least one value for the solubility of the specific solute in a specific solvent. Assuming the heat of fusion of the solute is constant over the range of temperatures, the relationship in equation (3) allows the mathematical transformation of the temperature and solubility data into an activity coefficient for the solute at each temperature. The terms in equation (3) are defined as follows: γsolute is the activity coefficient of the solute, xsolute is the mole fraction of the solute at a given temperature, T, in K; −ΔH^Fsolute is the heat of fusion in cal/g·mol of the solute, R is the ideal gas constant in cal/K·mol, T is the temperature of a given value for xsolute in K; and Tm(solute) is the melting temperature of the solute in K.
To interpret the solubility information, additional physical properties of diester were measured. The melting point was 124° C. (123-125° C.). The heat of fusion was 7422 cal/g·mole.
The solubility of diester, being a non-electrolyte, would obey the following thermodynamic relationship.
This relationship allows the weight % solubility versus temperature data to be mathematically transformed into an activity coefficient versus temperature data. The corresponding activity coefficient for each solubility data point is as follows: […]

solubility ([1]; 25° C.): about 1 wt. % | wt % Diester (solubility in methanol) ([1]; methanol, 25.5 C): 1.0% wt % | wt % Diester (solubility in methanol) ([1]; methanol, 31.1 C): 1.2% wt % | wt % Diester (solubility in methanol) ([1]; methanol, 34.1 C): 1.4% wt % | wt % Diester (solubility in methanol) ([1]; methanol, 34.6 C): 1.5% wt % | wt % Diester (solubility in methanol) ([1]; methanol, 39.6 C): 1.9% wt % | wt % Diester (solubility in methanol) ([1]; methanol, 44.0 C): 2.3% wt % | wt % Diester (solubility in methanol) ([1]; methanol, 44.3 C): 2.3% wt % | wt % Diester (solubility in methanol) ([1]; methanol, 52.4 C): 3.5% wt % | wt % Diester (solubility in methanol) ([1]; methanol, 54.1 C): 3.7% wt % | wt % Diester (solubility in methanol) ([1]; methanol, 61.2 C): 5.7% wt % | wt % Diester (solubility in methanol) ([1]; methanol, 65.3 C): 7.0% wt % | wt % Diester (solubility in methanol) ([1]; methanol, 65.4 C): 7.0% wt % | wt % Diester (solubility in methanol) ([1]; methanol, 100 C, glass pressure test tubes in boiling water): 58.0% wt % | wt % Diester (solubility in methanol) ([1]; methanol, 100 C, glass pressure test tubes in boiling water, listed as diester): about 58 wt % | wt % Diester (solubility in methanol) ([1]; methanol, 100 C, glass pressure test tubes in boiling water, listed as dimethyl-5-nitro-isophthalate): about 58 wt % | maximum solubility obtained below the normal boiling point of methanol ([1]; methanol, below normal boiling point): 7 wt. % | concentration of diester solutions obtained ([1]; methanol, temperature above 100° C.): greater than 70 wt. % | Activ Coef ([2]; 25.5 C): 36.3 | Activ Coef ([2]; 31.1 C): 33.7 | Activ Coef ([2]; 34.1 C): 32.4 | Activ Coef ([2]; 34.6 C): 32.1 | Activ Coef ([2]; 39.6 C): 30.1 | Activ Coef ([2]; 44.0 C): 28.4 | Activ Coef ([2]; 44.3 C): 28.3 | Activ Coef ([2]; 52.4 C): 25.3 | Activ Coef ([2]; 54.1 C): 24.7 | Activ Coef ([2]; 61.2 C): 21.9 | Activ Coef ([2]; 65.3 C): 20.4 | Activ Coef ([2]; 65.4 C): 20.5 | Activ Coef ([2]; 100.0 C): 3.5
SMILES: COC(=O)c1cc(C(=O)OC)cc([N+](=O)[O-])c1 [Diester, dimethyl-5-nitro-isophthalate]
